Values joined by “and” are separate entries in the source; they are usually repeats but may differ in a detail not shown here. Equal entries are not always repeated.
Tested on: P. falciparum
Experiment: Study 2: phase 2 randomized controlled trial, efficacy in teenagers with uncomplicated falciparum malaria
Type: in vivo, Plasmodium falciparum
Conditions: for Median PRR (parasite reduction ratio: parasitemia at baseline/parasitemia at 72 h): N=8, at 72 h
Text: The study was designed to enroll up to 180 participants. A randomized, controlled, age de-escalating trial design was applied in Study 2 to assess SAR97276A as a 3-day regimen administered IM to underage malaria patients. […] The study was planned to be conducted first in teenagers (age 12–17 years) and then in children (age 2–11 years).
Study 2 only enrolled uncomplicated malaria patients with P. falciparum ≥2000 parasites/µL. Two age groups were planned: Teenager aged 12–17 years and children aged 2–11 years. SAR97276A was planned to be administered only by IM injection.
Study duration and follow-up In both studies, study duration was 28 days for each patient including a screening period of up to 12 h before inclusion into the study. Participants were hospitalized for at least 3 days (72 h) after the start of treatment. Follow-up visits were done on day 6, 8, 14 ± 2, 21 ± 2, 28 ± 2 (Study 1); and day 7, 14 ± 2, 21 ± 2, 28 ± 2 (Study 2). Patient examination Fever measurements and thick blood smears were done every 6 h until 72 h and at each follow-up visit. Parasitemia was determined microscopically by Giemsa stained thick blood smear by two trained microscopists blinded to each other. […] Laboratory tests including hematology, biochemistry and urine analysis were done at baseline, day 2, 4, 28 (Study 1), or baseline, day 2, 4, 14, 28 (Study 2); vital signs were recorded at baseline, every 6 h until 72 h and on each follow up visit. An electrocardiogram (ECG) was done at baseline, day 4, 28 (Study 1), or baseline, 48 h, 72 h, day 28 (Study 2). For Study 2 respiratory parameters (respiratory rate, peak flow, efficiency of cough) were also checked at baseline and 30 min after first dose on day 1, 2 and 3.
Primary endpoint consisted of two criteria: (1) parasite clearance at 72 h analyzed by thick blood smear and (2) measurement of parasite reduction ratio (PRR: parasitemia at baseline/parasitemia at 72 h).
Sample size was calculated based on the parasite reduction ratio (PRR). Details are described in the supplementary information (see Additional file 4). PRR was calculated by: parasitemia at baseline/parasitemia at 72 h. For patients who prematurely discontinued study treatment the parasitemia at 72 h was replaced by last measurement of parasitemia or last measurement before rescue therapy for calculation of PRR at 72 h.
Parasite clearance time (PCT), PC50 and PC90 were calculated by Kaplan–Meier method. Interim analysis was to be performed following completion of each cohort.
Study 2: The patients were monitored up to day 28. […] The current available recommended rescue therapy as recommended by local guidelines was given. Treatment failures were described as early and late treatment failures.
Late treatment failure was defined as development of severe malaria after day 3 after first study drug administration in presence of parasitemia, and /or parasitemia on day 4 - 14 with axillary temperature ≥ 37.5°C, and /or any additional antimalarial therapy not specified in the study protocol.

[1] = Group 2A: 3 days IM once daily 0.5 mg/kg, N=8
[2] = Group 2B: 3 days IM twice daily 0.25 mg/kg, N=8

## Cc1c(CCO)sc[n+]1CCCCCCCCCCCC[n+]1csc(CCO)c1C [SAR97276A]
[1]
  Early treatment failures: 4
  Late treatment failures: 3
  Patients classified as treatment failures: 7/8
  Patients who received rescue treatment during the trial: 8/8
Group 2A: 3 days IM once daily 0.5 mg/kg
  Median PRR (parasite reduction ratio: parasitemia at baseline/parasitemia at 72 h): 22.5 (0.4–6280.0)
Group 2A: 3 days IM once daily 0.5 mg/kg, not seen in the other groups
  Parasitemia between 6 and 12 h after the start of treatment: Increase of parasitemia
[2]
  Early treatment failures: 4
  Late treatment failures: 1
  Patients classified as treatment failures: 5/8
Group 2B: 3 days IM twice daily 0.25 mg/kg, N=8, 0.25 mg/kg
  Patients who received rescue treatment during the trial: 5 out of 8 and 5/8
Group 2B: 3 days IM twice daily 0.25 mg/kg
  Median PRR (parasite reduction ratio: parasitemia at baseline/parasitemia at 72 h): 12.0 (0.3–83.1)

— publication PMC5418711, “Safety and efficacy of the choline analogue SAR97276 for malaria treatment: results of two phase 2, open-label, multicenter trials in African patients” (Malaria Journal, 2017)
